# Results: patent publication US4772594A, “Prodrug compounds, process for the preparation thereof and sustained release preparation comprising the same” (Fujisawa Pharmaceutical Co., Ltd., priority 1986, dated 1988)
# Tests used:
# [1] = tested on: human lung adenocarcinoma A 549; experiment: Anti tumor test 2: growth inhibition of A 549 under the subrenal capsule of mice; format: in vivo; conditions: Day 14, i.v. liposome preparation; for Inhibition: tumor growth
# From the text: (§1) The mixture of chloroform and methanol (3:1 V/V) containing egg yolk lecithin (245 μmole), egg yolk sphingomyelin (105 μmole) and Cyarabine prodrug (Example 8) (87.5 and 157.5 μmole respectively) was taken in a round-bottom flask. Liposome suspensions containing Cytarabine prodrug (Concentration: 10 and 18 μmole/ml respectively) were obtained in a similar manner to that of the above-mentioned method.
# A fragment of human lung adenocarcinoma A 549 was implanted under the subrenal capsule of BDF female mouse (8 weeks). Cytarabine aqueous solution (dose: 1000 μmole/kg) and above-mentioned liposome suspension containing Cytarabine prodrug (dose: 100 and 180 μmole/kg respectively)were administered intravenously to the mice at a volume of 0.2 ml per mouse body weight 20 g at Day 1, 5 and 9 after implantation. The tumor volume at Day 14 after implantation was measured and the growth inhibition percent was calculated. (In this test, to clarify the anti tumor effect of each preparation, 17-allyl-1,14-dihydroxy-12-[2-(4-hydroxy-3- methoxycyclohexyl)-1-methylvinyl]-23,25-dimethoxy-13,19,21,27-tetramethyl- 11,28-dioxa-4-azatricyclo[22.3.1.0^4,9 ]octacos-18-ene-2,3,10,16-tetraone as immunosuppressive substance(dose: 32 mg/kg) was administered subcutaneously at Day 1, 2, 5, 7, 9 and 12 after implanation.)
# in vitro = in vitro ADME; conditions: rat, serum
# Procedure: The mixture of chloroform and methanol (8:2 v/v) mixture containing egg yolk lecithin (70 μmole), egg yolk sphingomyelin (30 μmole) and Cytarabine prodrug (30 μmole) obtained in the below-mentioned Example 8 was poured into a round-bottom flask and evaporated to dryness. To this were added sodium cholate (53.8 mg) and PBS (5.0 ml) and the mixture was agitated to give a clear colorless solution.
# Sodium cholate was removed from the solution by the Lipoprep dialyzer to give liposome suspension containing Cytarabine prodrug.
# The liposome suspension was diluted with PBS to obtain the drug concentration of 5 μmole/ml and was filtered successively through polycarbonate membranes(prepared by Nuclepore Co., Ltd.) (0.2, 0.1 and 0.08μ respectively) and then filtered through a millex-GV filter (0.22 μ).
# After the above-mentioned liposome suspension and ethanol solution of Cytarabine prodrug (0.08 ml) were added to rat serum (4.0 ml, 37° C.), samples were taken periodically and the concentration of Cytarabine prodrug was determined by high-performance liquid chromatography.
# Conversion half lives (t 1/2) of the prodrug to the parent compound were calculated by the concentration of prodrug remaining at each time.
# [2] = tested on: Mouse leukemia cell L 1210; experiment: Anti tumor test 1: survival of mice implanted with L 1210 leukemia; format: in vivo; conditions: i.v. liposome suspension; for T/C: mean survival time vs control
# From the text: as §1, with “(8:2” for “(3:1”, “Cytarabine” for “Cyarabine”, “262.5” for “157.5”, “roundbottom” for “round-bottom”, “20” for “18”, “method. Mouse leukemia cell L 1210 (10^5 cells) were implanted intraperitoneally into BDF female mice (7 weeks).” for “method.”
# After 24 hours after inoculation, Cytarabine aqueous solution (dose: 1000 and 3000 μmole/kg respectively), above-mentioned liposome suspension containing Cytarabine prodrug (dose: 100 and 300 μmole/kg respectively)and aqueous solution of N^4 -behenoyl-1-β-arabinofuranosylcytosine (hereinafter referred to as BHAC) which is a known compound as Cytarabine prodrug and is shown by the following structure (dose: 100 and 300 μmole/kg respectively) were administered intravenously to the mouse at a volume of 0.2 ml or 0.3 ml (in case the administration at the dose of 300 μmole/kg of Cytarabine prodrug) per 20 g of mouse body weight. After the treatment, survival of the mice was recorded. [drawing 9]
# [3] = Conversion Test 1: conversion half life of prodrug to parent compound in rat serum; format: in vitro ADME; conditions: rat serum, 37° C.
# Procedure: (§2) Chloroform solution containing egg yolk lecithin (84 μmole), egg yolk sphingomyelin (36 μmole) and Mitomycin C prodrug ( 6 μmole) obtained in the below-mentioned Example 1 or 2 was poured into a round-bottom flask and evaporated to dryness.
# (§3) To this were added sodium cholate (258 mg) and pH 7.4 phosphate buffered saline (hereinafter referred to as PBS) (4.8 ml) and the mixture was agitated to give a clear purple solution.
# (§4) Sodium cholate was removed from the solution by the Lipoprep dialyzer (detergent removal apparatus prepared by Diachema Co., Ltd.) to give a liposome suspension containing Mitomycin C prodrug.
# (§5) Chloroform solution containing egg yolk lecithin (70 μmole), egg yolk sphingomyelin (30 μmole) and FR900482 substance prodrug (Example 6)(5 μmole) was poured into a round-bottom flask and a liposome suspension containing FR900482 substance prodrug was obtained in a similar manner to that of above-mentioned method.
# Above-mentioned two liposome suspensions containing Mitomycin C prodrug were each diluted with PBS at 2.5 times.
# The liposome suspension containing FR900482 substance prodrug was diluted with PBS to obtain the drug concentration of 0.5 μmole/ml and was filtered through millex-GV (trademark: prepared by Millipore Co., Ltd.) filter (0.22μ).
# (§6) After the liposome suspension and ethanol solution of each prodrug (0.5 ml) were added to mouse, rat or human serum (4.5 ml, 37° C.), samples were taken periodically and the concentration of each prodrug was determined by high-performance liquid chromotography.
# (§7) Conversion half lives (t 1/2) of each prodrug to each parent compound in various kinds of serum were calculated by the concentration of each prodrug remaining at each time.
# [4] = Conversion Test 1: conversion half life of prodrug to parent compound in mouse serum; format: in vitro ADME; conditions: 37° C.
# Procedure: as §2, §3, §4
# as §5, with “method. […]” for “method.”
# as §6, §7
# [5] = Conversion Test 1: conversion half life of prodrug to parent compound in human serum; format: in vitro ADME; conditions: 37° C.
# Procedure: as §2, §3, §4
# as §5, with “method. […]” for “method.”
# as §6, §7
Compound,"Tumor volume mean value ± standard error ([1]; 100 μmole/kg at Day 1, 5, 9)","Tumor volume mean value ± standard error ([1]; 180 μmole/kg at Day 1, 5, 9)","Inhibition ([1]; 100 μmole/kg at Day 1, 5, 9)","Inhibition ([1]; 180 μmole/kg at Day 1, 5, 9)",Half life (t 1/2) (in vitro),half-life (in vitro; Half life (t 1/2)),Mean survival time ([2]; 100 μmole/kg),Mean survival time ([2]; 300 μmole/kg),T/C ([2]; 100 μmole/kg),T/C ([2]; 300 μmole/kg),Half life (t 1/2) ([3]; ethanol solution),Half life (t 1/2) ([3]; liposome suspension),Half life (t 1/2) ([4]; ethanol solution),Half life (t 1/2) ([4]; liposome suspension),Half life (t 1/2) ([5]; ethanol solution),Half life (t 1/2) ([5]; liposome suspension)
"CC(C)CCC[C@@H](C)[C@H]1CC[C@H]2[C@@H]3CC=C4C[C@@H](OC(=O)NCC(=O)Nc5ccn([C@@H]6O[C@H](CO)[C@@H](O)[C@@H]6O)c(=O)n5)CC[C@]4(C)[C@H]3CC[C@]12C [Example 8, N^4-[N-(cholest-5-en-3β-oxycarbonyl)glycyl]-1-β-D-arabinofuranosylcytosine]",13.0 ± 3.0 mm^3,5.5 ± 1.6 mm^3,54.1%,80.4%,37.3 h,22.6 h,16.3 ± 0.3 days,33.3 ± 13.4 days,181%,370%,,,,,,
"11-[N-(cholest-5-en-3β-oxycarbonyl)glycyl]-4-formyl-6,9-dihydroxy-14- oxa-1,11-diazatetracyclo[7.4.1.0^2,7.0^10,12 ]tetradeca-2,4,6-triene-8-ylmethylcarbamate [Example 6]",,,,,,,,,,,4.0 h,10.3 h,2.7 h,4.6 h,3.3 h,9.9 h
